Assay results as given in the supplement of paper PMC10307832.

Key:
Assay in all cases: relative viability (nuclei count vs DMSO), 5 days (fraction); higher = more cells survive
LK-2 = test system: LK-2
Procedure, shortened: (§1)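 Lung cancer cell lines in 1536-well plates got either a single drug or a fixed anchor-drug dose together with five library-drug doses (not always all listed) in √10 steps, by pin tool, on the day after seeding. Nuclei were counted after 5 days, and relative viability is the treated-to-vehicle ratio of nuclei counts. Values are medians of duplicate plates.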

NCI-H2009 = test system: NCI-H2009
Procedure, shortened: as §1

LC-2-ad = test system: LC-2-ad
Procedure, shortened: as §1

EMC-BAC-2 = test system: EMC-BAC-2
Procedure, shortened: as §1

NCI-H2347 = test system: NCI-H2347
Procedure, shortened: as §1

SW 1573 = test system: SW 1573
Procedure, shortened: as §1

NCI-H838 = test system: NCI-H838
Procedure, shortened: as §1

HCC-366 = test system: HCC-366
Procedure, shortened: as §1

PC-14 = test system: PC-14
Procedure, shortened: as §1

NCI-H2085 = test system: NCI-H2085
Procedure, shortened: as §1

NCI-H596 = test system: NCI-H596
Procedure, shortened: as §1

NCI-H1734 = test system: NCI-H1734
Procedure, shortened: as §1

HOP-62 = test system: HOP-62
Procedure, shortened: as §1

NCI-H1993 = test system: NCI-H1993
Procedure, shortened: as §1

NCI-H2405 = test system: NCI-H2405
Procedure, shortened: as §1

RERF-LC-KJ = test system: RERF-LC-KJ
Procedure, shortened: as §1

CAL-12T = test system: CAL-12T
Procedure, shortened: as §1

NCI-H2228 = test system: NCI-H2228
Procedure, shortened: as §1

ChaGo-K-1 = test system: ChaGo-K-1
Procedure, shortened: as §1

NCI-H3122 = test system: NCI-H3122
Procedure, shortened: as §1

SK-MES-1 = test system: SK-MES-1
Procedure, shortened: as §1

NCI-H1355 = test system: NCI-H1355
Procedure, shortened: as §1

HCC-78 = test system: HCC-78
Procedure, shortened: as §1

Cc1cnc(-c2cnc(NCCNc3ccc(C#N)cn3)nc2-c2ccc(Cl)cc2Cl)[nH]1 + CC1(C)CCC(c2ccc(Cl)cc2)=C(CN2CCN(c3ccc(C(=O)NS(=O)(=O)c4ccc(N[C@H](CCN5CCOCC5)CSc5ccccc5)c(S(=O)(=O)C(F)(F)F)c4)cc3)CC2)C1 [Navitoclax] (partner 0.5 µM)
relative viability (LK-2; first compound 0.08 µM): 1.01
relative viability (LK-2; first compound 0.253 µM): 0.9
relative viability (LK-2; first compound 0.8 µM): 0.872
relative viability (LK-2; first compound 2.53 µM): 1.28
relative viability (NCI-H2009; first compound 0.08 µM): 1.15
relative viability (NCI-H2009; first compound 0.253 µM): 1.16
relative viability (NCI-H2009; first compound 0.8 µM): 1.28
relative viability (NCI-H2009; first compound 2.53 µM): 1.06
relative viability (LC-2-ad; first compound 0.08 µM): 0.53
relative viability (LC-2-ad; first compound 0.8 µM): 0.452
relative viability (LC-2-ad; first compound 2.53 µM): 0.5
relative viability (EMC-BAC-2; first compound 0.08 µM): 1.17
relative viability (EMC-BAC-2; first compound 0.253 µM): 1.05
relative viability (EMC-BAC-2; first compound 0.8 µM): 1.18
relative viability (EMC-BAC-2; first compound 2.53 µM): 1.18
relative viability (NCI-H2347; first compound 0.08 µM): 0.947
relative viability (NCI-H2347; first compound 0.253 µM): 0.625
relative viability (NCI-H2347; first compound 0.8 µM): 0.832
relative viability (NCI-H2347; first compound 2.53 µM): 0.857
relative viability (SW 1573; first compound 0.08 µM): 1.29
relative viability (SW 1573; first compound 0.253 µM): 0.801
relative viability (SW 1573; first compound 0.8 µM): 1.01
relative viability (SW 1573; first compound 2.53 µM): 0.685
relative viability (NCI-H838; first compound 0.08 µM): 1.21
relative viability (NCI-H838; first compound 0.253 µM): 1.11
relative viability (NCI-H838; first compound 0.8 µM): 1.44
relative viability (NCI-H838; first compound 2.53 µM): 1.6
relative viability (HCC-366; first compound 0.08 µM): 1.04
relative viability (HCC-366; first compound 0.253 µM): 1.02
relative viability (HCC-366; first compound 0.8 µM): 1.09
relative viability (HCC-366; first compound 2.53 µM): 0.89
relative viability (PC-14; first compound 0.08 µM): 1.1
relative viability (PC-14; first compound 0.253 µM): 0.883
relative viability (PC-14; first compound 0.8 µM): 1
relative viability (PC-14; first compound 2.53 µM): 0.895
relative viability (NCI-H2085; first compound 0.08 µM): 1.17
relative viability (NCI-H2085; first compound 0.253 µM): 1.15
relative viability (NCI-H2085; first compound 0.8 µM): 1.03
relative viability (NCI-H2085; first compound 2.53 µM): 1.16
relative viability (NCI-H596; first compound 0.08 µM): 1.1
relative viability (NCI-H596; first compound 0.253 µM): 0.79
relative viability (NCI-H596; first compound 0.8 µM): 0.882
relative viability (NCI-H596; first compound 2.53 µM): 0.897
relative viability (NCI-H1734; first compound 0.08 µM): 0.946
relative viability (NCI-H1734; first compound 0.253 µM): 0.784
relative viability (NCI-H1734; first compound 0.8 µM): 0.829
relative viability (NCI-H1734; first compound 2.53 µM): 0.788
relative viability (HOP-62; first compound 0.08 µM): 1.13
relative viability (HOP-62; first compound 0.253 µM): 0.843
relative viability (HOP-62; first compound 0.8 µM): 0.997
relative viability (HOP-62; first compound 2.53 µM): 0.768
relative viability (NCI-H1993; first compound 0.08 µM): 0.976
relative viability (NCI-H1993; first compound 0.253 µM): 0.906
relative viability (NCI-H1993; first compound 0.8 µM): 0.996
relative viability (NCI-H1993; first compound 2.53 µM): 0.882
relative viability (NCI-H2405; first compound 0.08 µM): 1.17
relative viability (NCI-H2405; first compound 0.253 µM): 0.761
relative viability (NCI-H2405; first compound 0.8 µM): 1.02
relative viability (NCI-H2405; first compound 2.53 µM): 0.326
relative viability (RERF-LC-KJ; first compound 0.08 µM): 1.08
relative viability (RERF-LC-KJ; first compound 0.253 µM): 0.626
relative viability (RERF-LC-KJ; first compound 0.8 µM): 0.905
relative viability (RERF-LC-KJ; first compound 2.53 µM): 0.776
relative viability (CAL-12T; first compound 0.08 µM): 1.29
relative viability (CAL-12T; first compound 0.253 µM): 1.15
relative viability (CAL-12T; first compound 0.8 µM): 1.18
relative viability (CAL-12T; first compound 2.53 µM): 1.06
relative viability (NCI-H2228; first compound 0.08 µM): 0.854
relative viability (NCI-H2228; first compound 0.253 µM): 1.14
relative viability (NCI-H2228; first compound 0.8 µM): 0.796
relative viability (NCI-H2228; first compound 2.53 µM): 0.536
relative viability (ChaGo-K-1; first compound 0.08 µM): 0.791
relative viability (ChaGo-K-1; first compound 0.253 µM): 0.863
relative viability (ChaGo-K-1; first compound 0.8 µM): 0.516
relative viability (ChaGo-K-1; first compound 2.53 µM): 0.856
relative viability (NCI-H3122; first compound 0.08 µM): 0.988
relative viability (NCI-H3122; first compound 0.253 µM): 0.881
relative viability (NCI-H3122; first compound 0.8 µM): 0.977
relative viability (NCI-H3122; first compound 2.53 µM): 0.994
relative viability (SK-MES-1; first compound 0.08 µM): 1.19
relative viability (SK-MES-1; first compound 0.253 µM): 1.14
relative viability (SK-MES-1; first compound 2.53 µM): 1.14
relative viability (NCI-H1355; first compound 0.08 µM): 1.03
relative viability (NCI-H1355; first compound 0.253 µM): 0.858
relative viability (NCI-H1355; first compound 0.8 µM): 0.884
relative viability (NCI-H1355; first compound 2.53 µM): 0.938
relative viability (HCC-78; first compound 0.08 µM): 0.955
relative viability (HCC-78; first compound 0.253 µM): 0.661
relative viability (HCC-78; first compound 0.8 µM): 0.701
relative viability (HCC-78; first compound 2.53 µM): 0.757
